The target in experiment [1] is T1, DLL3 (Homo sapiens, UniProt Q9NYJ7).
T1 construct: The recombinant DLL3 ectodomain (rhDLL3-Fc) was biotinylated; Fc
T1 sequence (Q9NYJ7 27-492 limits assumed): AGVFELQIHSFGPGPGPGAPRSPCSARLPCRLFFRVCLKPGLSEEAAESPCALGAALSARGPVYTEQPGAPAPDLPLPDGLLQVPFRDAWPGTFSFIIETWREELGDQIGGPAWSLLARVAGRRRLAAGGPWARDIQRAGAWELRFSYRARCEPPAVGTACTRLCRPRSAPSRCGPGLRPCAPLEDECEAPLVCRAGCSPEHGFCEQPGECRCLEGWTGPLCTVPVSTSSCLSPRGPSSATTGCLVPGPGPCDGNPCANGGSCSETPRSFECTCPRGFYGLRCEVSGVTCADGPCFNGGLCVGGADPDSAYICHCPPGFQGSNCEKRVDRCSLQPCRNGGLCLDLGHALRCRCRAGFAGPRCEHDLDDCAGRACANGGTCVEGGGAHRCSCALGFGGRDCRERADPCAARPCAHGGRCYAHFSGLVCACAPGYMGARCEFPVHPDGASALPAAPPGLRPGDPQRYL
Description: Binding of peptides with linkers and/or fluorescent agent to DLL3 (BLI, SPR; Table 6). The method, then: Binding kinetic assays were performed using Bio-layer interferometry (BLI) technology. The recombinant DLL3 ectodomain (rhDLL3-Fc) was biotinylated using EZ-Link Sulfo-NHS-LC-LC-Biotin Kit according to the manufacturer's protocol (Pierce by Thermo Fisher Scientific). The recombinant protein was incubated with an excess of NHS-LC-LC Biotin ester, in a molar ratio of 1:3 (protein: biotin), at 25° C. for 90 min. The un-reacted biotin ester was removed by subsequent buffer exchange on 0.5 ml Zeba spin desalting columns 7K MWCO (Pierce by Thermo Fisher Scientific).
The off-rate screening of the peptides was done using a Biacore T200 instrument (Cytiva, Sweden). […] Peptides were diluted at 300 nM in PBS-P+1× buffer (Cytiva, Sweden) supplemented with 1% DMSO and 0.1% BSA, then injected over the ligand for five minutes at 30 μl/min, finally dissociation allowed for 1 h. Sensorgrams were analyzed by Biacore T200 Evaluation Software 3.0 (Cytiva, Sweden): specific binding was obtained by subtracting unspecific binding to naked biosensors and a zero analyte concentration made of binding assay buffer (double referencing). Kinetic parameters of koff were measured using a global fitting according to 1:1 Langmuir binding isotherm equation.

Experiment [2] addresses T2, cell-surface hDLL3 (CHO cells) (Homo sapiens, UniProt Q9NYJ7).
T2 construct: expressed in transfected cells; host or cells: CHO (CHO-huDLL3)
T2 sequence (Q9NYJ7 27-618): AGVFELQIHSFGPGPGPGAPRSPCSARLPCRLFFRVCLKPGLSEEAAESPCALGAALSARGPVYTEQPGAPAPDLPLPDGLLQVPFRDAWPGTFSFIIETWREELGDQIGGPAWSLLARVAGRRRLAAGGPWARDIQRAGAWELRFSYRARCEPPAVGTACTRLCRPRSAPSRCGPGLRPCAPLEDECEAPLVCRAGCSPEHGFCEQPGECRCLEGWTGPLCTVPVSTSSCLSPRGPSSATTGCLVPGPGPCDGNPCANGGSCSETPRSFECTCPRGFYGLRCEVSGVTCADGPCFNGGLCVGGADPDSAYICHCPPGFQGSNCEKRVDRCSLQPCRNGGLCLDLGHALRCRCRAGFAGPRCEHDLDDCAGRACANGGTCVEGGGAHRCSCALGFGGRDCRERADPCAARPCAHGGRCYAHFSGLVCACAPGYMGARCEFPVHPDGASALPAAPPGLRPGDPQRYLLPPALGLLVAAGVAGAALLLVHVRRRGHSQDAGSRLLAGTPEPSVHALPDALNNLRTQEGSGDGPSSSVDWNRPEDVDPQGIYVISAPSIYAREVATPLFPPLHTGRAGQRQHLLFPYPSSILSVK
Description: Flow cytometry binding of fluorescence labelled peptides. In kind it is cell-based. The settings on record: 100 nM AF647-labelled peptide; FIG. 1.
Description: HEK293-huDLL3, CHO-huDLL3 and the corresponding parental cell lines were detached with EDTA 2.5 mM and re-suspended at 1.8×10^6 cells/ml in FACS buffer (1×PBS, 2% FBS), distributed at 500 μl per testing tube and pelleted 5 min at 1300 rpm in a Heraeus Multifuge X3R centrifuge. […] After 1 hour incubation at room temperature, cells were washed once with FACS buffer, centrifuged and re-suspended in FACS buffer/1% formaldehyde. Samples were acquired on a FACS ARIA flow cytometer (Becton Dickinson) and data analysed by FACS Express software.

Bridge positions count the residues as written; N and C are the ends. Peptide text beside a SMILES is read from it. * marks the point of attachment. X11 = NCCCC[C@H](NC(=O)CCC(=O)NCCCOCCOCCOCCCN*)C(N)=O

As to `CC(=O)N[C@@H](C)C(=O)N[C@@H](CCC(=O)O)C(=O)N[C@H](C(=O)N[C@H](C(=O)N[C@@H](CCC(=O)O)C(=O)N[C@@H](Cc1ccccc1)C(=O)N[C@@H](Cc1c[nH]c2ccccc12)C(=O)N[C@@H](Cc1c[nH]c2ccccc12)C(=O)N[C@H]1CSSC[C@@H](C(=O)N[C@H](C(=O)N[C@@H](Cc2c[nH]c3ccccc23)C(=O)NCC(=O)NCC(=O)NCCCOCCOCCOCCCNC(=O)CCC(=O)N[C@@H](CCCCN)C(N)=O)[C@@H](C)O)NC(=O)[C@H]([C@@H](C)O)NC(=O)[C@H](Cc2c[nH]c3ccccc23)NC(=O)[C@H](CC(N)=O)NC(=O)[C@H](CCC(=O)O)NC(=O)[C@H](CO)NC(=O)[C@H](CC(N)=O)NC(=O)CNC(=O)[C@H](CC(N)=O)NC1=O)C(C)C)[C@@H](C)O` [PepSP1324] (Ac-AETVEFWWCNGNSENWTCTWGG-X11; disulfide 9-18 (inferred)), in experiment [1], binding was put at a Kd of 29 ± 16 nM and the RT was 189.3 ± 73^.

As for `CC(=O)N[C@@H](C)C(=O)N[C@@H](CCC(=O)O)C(=O)N[C@H](C(=O)N[C@H](C(=O)N[C@@H](CCC(=O)O)C(=O)N[C@@H](Cc1ccccc1)C(=O)N[C@@H](Cc1c[nH]c2ccccc12)C(=O)NCC(=O)N[C@H]1CSSC[C@@H](C(=O)N[C@@H](Cc2c[nH]c3ccccc23)C(=O)N[C@@H](Cc2c[nH]c3ccccc23)C(=O)NCC(=O)NCC(=O)NCCCOCCOCCOCCCNC(=O)CCC(=O)N[C@@H](CCCCN)C(N)=O)NC(=O)[C@H]([C@@H](C)O)NC(=O)[C@H](CCC(=O)O)NC(=O)[C@H](CC(N)=O)NC(=O)CNC(=O)[C@H](Cc2c[nH]c3ccccc23)NC(=O)[C@H]([C@@H](C)O)NC(=O)CNC(=O)[C@H]([C@@H](C)O)NC1=O)C(C)C)[C@@H](C)O` [PepSP1321] (Ac-AETVEFWGCTGTWGNETCWWGG-X11; disulfide 9-18), the RT in experiment [1] is reported as 369.

Take `CC(C)[C@H](NC(=O)[C@@H](NC(=O)[C@H](CCC(=O)O)NC(=O)[C@H](C)N)[C@@H](C)O)C(=O)N[C@@H](CCC(=O)O)C(=O)N[C@@H](Cc1ccccc1)C(=O)N[C@@H](Cc1c[nH]c2ccccc12)C(=O)NCC(=O)N[C@H]1CSSC[C@@H](C(=O)N[C@@H](Cc2c[nH]c3ccccc23)C(=O)N[C@@H](Cc2c[nH]c3ccccc23)C(=O)NCCCOCCOCCOCCCNC(=O)CCC(=O)N[C@@H](CCCCn2nnc3c2-c2ccccc2CN(C(=O)CCNC(=O)CCCCC[N+]2=C(/C=C/C=C/C=C4/N(CCCS(=O)(=O)O)c5ccc(S(=O)(=O)O)cc5C4(C)C)C(C)(CCCS(=O)(=O)O)c4cc(S(=O)(=O)[O-])ccc42)c2ccccc2-3)C(N)=O)NC(=O)[C@H]([C@@H](C)O)NC(=O)[C@H](CCC(=O)O)NC(=O)[C@H](CC(N)=O)NC(=O)CNC(=O)[C@H](Cc2c[nH]c3ccccc23)NC(=O)[C@H]([C@@H](C)O)NC(=O)CNC(=O)[C@H]([C@@H](C)O)NC1=O` (some centres unmarked) [PepSP1215]: the “binding to cells expressing hDLL3” value in experiment [2] was “binding”. Further, the dissociation constant (Kd) in experiment [1] was found to be 11.6 nM.

As usually defined, the Kd is a measure of binding affinity in units of concentration.

Values taken from US20250074943A1, “DLL3 BINDING PEPTIDES AND USES THEREOF” (AMGEN INC., priority 2021, published 2025).
